From patent US20190169218A1, “AMPHIPATHIC COMPOUND HAVING NOVEL PENTA-SACCHARIDE HYDROPHILIC GROUP AND USE THEREOF” (Industry-University Cooperation Foundation Hanyang …, priority 2016, published 2019)

Assays:
[1] = critical micelle concentration (CMC) by hydrophobic fluorescent staining with diphenylhexatriene (DPH); type: physicochemical
Description: Methods of measuring CMC are not particularly limited, and methods widely known in the art may be used. For example, a fluorescence staining method using diphenylhexatriene (DPH) may be used.
To characterize PSAs of Preparation Examples 1 to 3 synthesized according to the synthetic method of Example 1; PSEs of Preparation Examples 4 to 7 synthesized according to the synthetic method of Example 2; TPS-Es and TPS-ELs of Preparation Examples 8 to 14 synthesized according to the synthetic method of Example 3; and TPS-As of Preparation Examples 15 to 17 synthesized according to the synthetic method of Example 4, the critical micellar concentrations (CMCs) of PSAs, PSEs and TPSs and the hydrodynamic radii (Rh) of formed micelles were measured.
(§1) Specifically, critical micellar concentrations (CMCs) were measured using hydrophobic fluorescent staining and diphenylhexatriene (DPH), and the hydrodynamic radii (Rh) of micelles formed by each compound at a concentration of 1.0 wt % were measured using dynamic light scattering (DLS). The results were compared with results obtained from an existing amphipathic molecule (detergent), DDM, and are shown in Table 1.

[2] = target: T1, human β2 adrenergic receptor (β2AR) (Homo sapiens, UniProt P07550); assay: β2AR activity by [3H]-dihydroalprenolol radioactive ligand binding assay; type: biochemical; conditions: for long-term β2AR activity ([3H]-DHA binding): 3 or 5 days at room temperature
T1 construct: Flag; made in house
T1 sequence (P07550 whole entry): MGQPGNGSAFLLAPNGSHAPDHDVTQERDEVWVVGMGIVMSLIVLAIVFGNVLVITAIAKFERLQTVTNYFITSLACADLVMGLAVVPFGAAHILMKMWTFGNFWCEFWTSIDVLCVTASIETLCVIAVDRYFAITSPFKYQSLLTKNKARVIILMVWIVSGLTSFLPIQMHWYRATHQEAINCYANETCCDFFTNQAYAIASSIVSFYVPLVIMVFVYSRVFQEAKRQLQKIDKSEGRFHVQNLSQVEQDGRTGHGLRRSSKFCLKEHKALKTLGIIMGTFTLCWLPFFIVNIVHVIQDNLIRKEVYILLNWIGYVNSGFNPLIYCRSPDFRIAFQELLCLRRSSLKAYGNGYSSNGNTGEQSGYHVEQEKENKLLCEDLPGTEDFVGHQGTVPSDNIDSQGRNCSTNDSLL
Description: The membrane protein stabilizing ability of receptors (mBBr-β2ARs) solubilized in PSAs or PSEs was evaluated by measuring the binding activity of the receptors to [^3H]-dihydroalprenolol ([^3H]-DHA).
Specifically, radioactive ligand binding assay was performed as follows. β2ARs purified with 0.1 wt % DDM was concentrated to about 10 mg/mL (approximately 200 μM). β2ARs purified with DDM were used to prepare a master binding mixture containing 10 nM [^3H]-dihydroalprenolol (DHA), which was dissolved in 0.2 wt % of DDM, PSA or PSE and supplemented with 0.5 mg/mL BSA. At a concentration of 0.2 pmol, the activity of the receptors purified with the amphipathic compounds was monitored at regular intervals over a 4-day incubation period. Protein samples were incubated on ice for 2 days and then at room temperature for 2 days. Receptor activity was measured by binding assay for dissolved radioactive ligands. The receptors purified with DDM or a novel formulation (PSA-C11, PSE-C11 or PSE-C13) were incubated with 10 nM [^3H]-DHA at room temperature for 30 minutes. The mixture was loaded onto a G-50 column, a solution passed through the column was collected in 1 mL of a binding buffer (100 mM NaCl and 20 mM HEPES (pH 7.5) supplemented with 0.5 mg/mL BSA and 20×CMC amphipathic compounds), and 15 mL of a scintillation fluid was added to the solution. Receptor-bound [^3H]-DHA was measured using a scintillation counter (Beckman). Non-specific binding of [^3H]-DHA was measured by adding 1 μM alprenolol (Sigma) to the same reaction mixture. The binding degree of the receptors to [^3H]-DHA was represented by a column graph.
The ability of TPSs (TPS-As, TPS-Es and TPS-ELs) to stabilize the structures of human β2 adrenergic receptors (β2ARs) and G protein-coupled receptors (GPCRs) was measured. That is, DDM-purified receptors were diluted with a buffer solution containing only each of the TPSs without cholesteryl hemisuccinate (CHS) or a buffer solution containing CHS and DDM. The final concentration of the compounds was CMC+0.2wt %, and the binding activity of the receptors to ligands was evaluated by measuring the degree of binding of the receptors to [^3H]-dihydroalprenolol ([^3H]-DHA).
Specifically, radioactive ligand binding assay was performed as follows. β2ARs were purified with 0.1 wt % DDM (D. M. Rosenbaum et al., Science, 2007, 318, 1266-1273.) and was concentrated to about 10 mg/mL (approximately 200 μM). β2ARs purified with DDM were used to prepare a master binding mixture containing 10 nM [^3H]-dihydroalprenolol (DHA), which was dissolved in 0.2% amphipathic compounds (DDM or TPSs) and supplemented with 0.5 mg/mL BSA. The activity of the receptors purified with the amphipathic compounds was monitored at regular intervals over a 3- to 5-day incubation period. The receptors purified with DDM or TPSs were incubated with 10 nM [^3H]-DHA at room temperature for 30 minutes. The mixture was loaded onto a G-50 column, a solution passed through the column was collected in 1 mL of a binding buffer (100 mM NaCl and 20 mM HEPES (pH 7.5) supplemented with 0.5 mg/mL BSA and 20×CMC of each amphipathic compound), and 15 mL of a scintillation fluid was added to the solution. Receptor-bound [^3H]-DHA was measured using a scintillation counter (Beckman). The binding degree of the receptors to [^3H]-DHA was represented by a column graph.

[3] = hydrodynamic radius of micelles by dynamic light scattering (DLS); type: physicochemical; conditions: compound at 1.0 wt %
Description: Methods of measuring the radius of micelles are not particularly limited, and methods widely known in the art may be used. For example, dynamic light scattering (DLS) may be used.
as §1
When measuring, each of PSAs, PSEs and TPSs was used at a concentration of 1.0 wt %.

[4] = test system: T4L-β2AR-Gs or β2AR-Gs complexes; assay: purification and stability of T4L-β2AR-Gs or β2AR-Gs complexes (analytical gel filtration, negative staining EM); parameters: species or system human; conditions: after incubation for 15 and 17 days
Description: The ability of PSE-C11 or TPS-E10L to purify and stabilize T4L-β2AR-Gs or β2AR-Gs complexes was measured using electron microscopy (EM) analysis.
Specifically, measurement of the ability of PSE-C11 for TPS-E10L to purify and stabilize T4L-β2AR-Gs or β2AR-Gs complexes was performed as follows. 100 μM T4L-β2AR solubilized in 0.1 wt % DDM was mixed with 120 μM Gs heterotrimers for 30 minutes. 0.5 units of apyrase (NEB) and 2 mM MgCl2 were added to the mixture, followed by a 1-hour incubation to form complexes. 1 wt % PSE-C11 or TPS-E10L was respectively added to the mixture to achieve a final concentration of 0.8%, and incubated for 30 minutes to allow DDM to be exchanged with PSE-C11 or TPS-E10L. […] Finally, proteins were eluted with a 0.05% (100×CMC) PSE-C11 or TPS-E10L buffer. Gel filtration was performed using a running buffer (20 mM HEPES (pH 7.5), 100 mM NaCl, 0.005% PSE-C11 or TPS-E10L, 1 μM BI, 100 μM TCEP) to purify T4L-β2AR-Gs complexes. To measure the stability of β2AR-Gs complexes present in PSE-C11 or TPS-E10L, analytical gel filtration was performed with running buffers of the same formulation at 12 hours, 1 day, 3 days, 7 days, and 15 days. After a 15 day-incubation, analytical gel filtration was performed using an amphiphilic compound pre-buffer having the same formulation as above without PSE-C11 or TPS-E10L.
In addition, negative staining EM analysis for T4L-β2AR-Gs or β2AR-Gs complexes present in PSE-C11 was performed as follows. Samples containing T4L-β2AR-Gs or β2AR-Gs were prepared to perform electron microscopy analysis using a conventional negative staining protocol (see Peisley, A. et al., G Protein-Coupled Receptors in Drug Discovery: Methods and Protocols, Methods in Molecular Biology, 1335, 29-38 (2015)), and imaging was performed by operating a Tecnai T12 electron microscope at 120 kV at room temperature. Images were recorded with a Gatan US4000 CCD camera at a 71,138×magnification with a defocus value of ˜[…].

[5] = target: T2, uric acid-xanthine/H+ symporter (UapA) (Emericella nidulans, UniProt Q07307, G411V); assay: thermal stability of UapA by CPM analysis; parameters: species or system Aspergillus nidulans; conditions: CMC+0.2 wt %, 40° C., 120 minutes
T2 construct: GFP; made in house; host or cells: Saccharomyces cerevisiae FGY217
T2 sequence (Q07307 12-574 G411V): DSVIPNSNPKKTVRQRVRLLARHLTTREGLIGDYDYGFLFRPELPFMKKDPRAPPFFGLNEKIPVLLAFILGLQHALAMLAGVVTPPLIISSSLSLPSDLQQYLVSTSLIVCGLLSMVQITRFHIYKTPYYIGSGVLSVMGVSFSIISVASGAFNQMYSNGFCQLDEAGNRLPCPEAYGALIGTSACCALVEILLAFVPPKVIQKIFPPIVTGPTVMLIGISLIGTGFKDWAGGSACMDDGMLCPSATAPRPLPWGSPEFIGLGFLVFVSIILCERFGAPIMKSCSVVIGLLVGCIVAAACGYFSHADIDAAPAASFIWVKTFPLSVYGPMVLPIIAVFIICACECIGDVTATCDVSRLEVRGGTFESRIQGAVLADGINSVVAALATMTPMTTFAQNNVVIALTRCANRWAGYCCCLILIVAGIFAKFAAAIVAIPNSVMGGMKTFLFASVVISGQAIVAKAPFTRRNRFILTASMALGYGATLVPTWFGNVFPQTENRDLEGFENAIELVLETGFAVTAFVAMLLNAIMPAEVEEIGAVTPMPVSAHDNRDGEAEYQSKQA
Description: The ability of TPSs (TPS-As, TPS-Es and TPS-ELs) to stabilize the structure of uric acid-xanthine/H+ symporter (UapA) isolated from Aspergillus nidulans was measured. The structural stability of UapA was evaluated using a sulfhydryl-specific fluorophore, N-[4-(7-diethylamino-4-methyl-3-coumarinyl)phenyl]maleimide (CPM).
Specifically, UapAG411V1-11 (hereinafter, referred to as ‘UapA’) was expressed in a Saccharomyces cerevisiae FGY217 strain as a GFP fusion protein, and was isolated using a sample buffer (20 mM Tris (pH 7.5), 150 mM NaCl, 0.03% DDM, 1 mM xanthine). The transporter was concentrated to about 10 mg/mL using a 100 kDa molecular weight cut-off filter (Millipore). The transporter was diluted with a CMC+0.04 wt % or CMC+0.2 wt % buffer at a ratio of 1:150 in a Greiner 96-well plate containing one of TPS-As (TPS-A6, TPS-A7 or TPS-A8), TPS-Es (TPS-E6, TPS-E7 or TPS-E8), TPS-ELs (TPS-E8L, TPS-E9L, TPS-E10L or TPS-E11L), MNG-3 or DDM (control group). […] During incubation, fluorescence emission intensity was monitored using a microplate spectrophotometer set at excitation and emission wavelengths of 387 and 463 nm, respectively. The maximum value of fluorescence intensity was used to calculate the relative percentage of folded transporters during the incubation period. […]

| SMILES | CMC [1] | CMC (wt %) [1] | long-term β2AR activity ([3H]-DHA binding) [2] | initial receptor activity maintained ([2]; after 5 days of incubation at room temperature) | Rh (nm), hydrodynamic radius of micelles [3] | stability of β2AR-Gs complexes (analytical gel filtration) [4] | maintaining folding state of UapA (CPM) [5] |
| --- | --- | --- | --- | --- | --- | --- | --- |
| CCCCCCCCCCOCC(COCCCCCCCCCC)(COCCCCCCCCCC)CO[C@@H]1OC(COCCCO[C@@H]2OC(CO)[C@@H](O)C(O)C2O)[C@@H](OCCCO[C@@H]2OC(CO)[C@@H](O)C(O)C2O)C(OCCCO[C@@H]2OC(CO)[C@@H](O)C(O)C2O)C1OCCCO[C@@H]1OC(CO)[C@@H](O)C(O)C1O (some centres unmarked) [TPS-E10L] | ~0.002 mM | ~0.0003 wt % | significantly better than that of DDM | up to 90% | 4.8 ± 0.34 nm | no separation of the complexes was observed at all | – |
| CCCCCCCCCCCOCC(COCCCCCCCCCCC)(COCCCCCCCCCCC)CO[C@@H]1OC(COCCCO[C@@H]2OC(CO)[C@@H](O)C(O)C2O)[C@@H](OCCCO[C@@H]2OC(CO)[C@@H](O)C(O)C2O)C(OCCCO[C@@H]2OC(CO)[C@@H](O)C(O)C2O)C1OCCCO[C@@H]1OC(CO)[C@@H](O)C(O)C1O (some centres unmarked) [TPS-E11L] | ~0.001 mM | ~0.0002 wt % | significantly better than that of DDM | – | 40.6 ± 4.4 nm | – | the best effect |
